This passage reports IC50 results from patent publication US11299487B2, “Compounds and compositions as modulators of TLR signaling” (Neuropore Therapies, Inc., priority 2019, dated 2022).

A value given as a limit tells only on which side of the number the result lay.

The target of experiment [1] is T1, human TLR2 (Homo sapiens, UniProt O60603).
T1 construct: host or cells: HEK-Blue hTLR2 (HEK-293)
Briefly: HEK-Blue hTLR2 antagonism assay (SEAP reporter) with agonist Pam2CSK4 (TLR2/6 agonist). Type of experiment: cell-based. The note with it: HEK-Blue hTLR2 cells, ~3×EC50 Pam2CSK4, 18 h, SEAP OD 655 nm, 8-point dilutions. On the procedure: (§1) Synthetic diacylated lipoprotein (Pam2CSK4, TLR2/6 agonist) and synthetic triacylated lipoprotein (Pam3CSK4, TLR1/2 agonist) were obtained from InvivoGen and were dissolved in endotoxin-free water to a concentration 1 mg/mL, vortexed until complete solubilization, and stored in aliquots at −20° C. Prior to addition to cells, an aliquot of the dissolved ligand was vortexed shortly and then was diluted in medium to 25 ng/mL Pam2CSK4 or 1000 ng/mL Pam3CSK4.
(§2) Test compounds were solubilized fresh to 10-20 mM stocks in DMSO and sonicated for 5-10 minutes in a water bath sonicator. Serial dilutions were prepared in DMSO, and then diluted in medium. The final concentration of DMSO used in the assay was 1%.
(§3) HEK-Blue hTLR2 reporter cells (InvivoGen) are HEK-293 cells stably expressing both the human TLR2 gene and a secreted embryonic alkaline phosphatase (SEAP) reporter construct downstream of NFκB promotor sites. HEK-Blue hTLR2 reporters were cultured according to manufacturer's protocol using Dulbecco's Modified Eagle Medium (DMEM; Gibco) containing 1× GlutaMax (Gibco), 10% heat-inactivated Fetal Bovine Serum (Gibco), Pen-Strep (50 U/mL penicillin, 50 μg/mL streptomycin, Gibco), 100 μg/mL Normocin (InvivoGen), and the selective antibiotic, 1×HEK-Blue Selection (InvivoGen). Quanti-Blue reagent (InvivoGen) for detection and quantification of secreted alkaline phosphatase was dissolved in 100 mL of endotoxin-free water, warmed to 37° C. for 30 minutes and then filtered using a 0.2 μm membrane.
(§4) On day 1, 50 μL of each test compound dilution in duplicates or a vehicle control was added to each well of a 96-well plate followed by addition of 150 μL of HEK-Blue hTLR2 cell suspension (1×10^5 cells/well) and incubated at 37° C./5% CO2 for 2 h. Next, 50 μL of an approximate 3×EC50 concentration of each agonist (Pam2CSK4 or Pam3CSK4) was added to the wells containing test compounds or the vehicle control. The plates were then incubated at 37° C./5% CO2 for 18 h. For each assay run, non-treated HEK-Blue hTLR2 cells were treated with serial dilutions of agonists to determine EC50 values for the respective run.
(§5) On day 2, secreted alkaline phosphatase (SEAP) activity was detected in cell culture supernatants. In brief, 20 μL was collected from each well and transferred to a 96-well plate. Next, 200 μL of Quanti-Blue detection reagent was added to each well. Plates were incubated at room temperature for 15 min. and SEAP activity was assessed by spectrophotometer OD reading at 655 nm. […] IC50 values were calculated based on 8-point dilutions for each compound.

Experiment [2] addresses T1, human TLR2. Briefly: HEK-Blue hTLR2 antagonism assay (SEAP reporter) with agonist Pam3CSK4 (TLR1/2 agonist). Type of experiment: cell-based. The conditions noted are these: HEK-Blue hTLR2 cells, ~3×EC50 Pam3CSK4, 18 h, SEAP OD 655 nm, 8-point dilutions. Here is the method:
as §1, §2, §3, §4, §5

T1 sequence (O60603 21-784): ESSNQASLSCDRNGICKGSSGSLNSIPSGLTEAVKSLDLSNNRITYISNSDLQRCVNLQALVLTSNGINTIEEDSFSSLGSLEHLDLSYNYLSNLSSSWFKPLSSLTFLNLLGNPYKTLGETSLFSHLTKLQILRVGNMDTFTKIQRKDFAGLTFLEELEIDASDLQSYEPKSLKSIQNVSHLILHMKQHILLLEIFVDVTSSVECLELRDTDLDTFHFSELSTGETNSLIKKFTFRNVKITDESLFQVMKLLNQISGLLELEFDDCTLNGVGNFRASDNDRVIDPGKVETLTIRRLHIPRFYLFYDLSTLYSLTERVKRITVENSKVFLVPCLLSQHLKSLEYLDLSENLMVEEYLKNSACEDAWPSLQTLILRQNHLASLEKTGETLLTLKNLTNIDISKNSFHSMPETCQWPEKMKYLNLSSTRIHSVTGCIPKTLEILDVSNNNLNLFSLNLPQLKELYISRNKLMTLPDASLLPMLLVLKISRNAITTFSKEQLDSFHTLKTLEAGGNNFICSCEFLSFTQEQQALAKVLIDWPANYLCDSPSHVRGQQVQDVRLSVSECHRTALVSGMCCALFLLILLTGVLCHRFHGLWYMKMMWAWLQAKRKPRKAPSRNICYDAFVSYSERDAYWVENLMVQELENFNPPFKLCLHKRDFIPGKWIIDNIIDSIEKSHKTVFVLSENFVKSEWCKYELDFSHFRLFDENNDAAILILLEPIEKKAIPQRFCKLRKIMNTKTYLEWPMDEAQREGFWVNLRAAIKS

For the compound `O=Cc1cc(-c2cn(-c3cccc(N4CCCC4)c3)nn2)cc(F)c1O` [Compound A45, 3-fluoro-2-hydroxy-5-(1-(3-(pyrrolidin-1-yl)phenyl)-1H-1,2,3-triazol-4-yl)benzaldehyde], the half-inhibitory concentration (IC50) on human TLR2 [1] (Table A) and at human TLR2 [2] (Table A) was 1.3 µM throughout.
On to `O=Cc1cc(-c2ccc(-c3ccc(N4CCCC4)cc3)s2)cc(F)c1O` [Compound A50, 3-fluoro-2-hydroxy-5-(5-(4-(pyrrolidin-1-yl)phenyl)thiophen-2-yl)benzaldehyde], for which the half-maximal inhibitory concentration (IC50) on human TLR2 [1] (Table A) was found to be 4.1 µM; at human TLR2 [2] (Table A), 0.9 µM.
The corresponding values for `O=Cc1cc(-c2ncc(-c3ccccc3)o2)cc(F)c1O` [Compound A89, 3-fluoro-2-hydroxy-5-(5-phenyloxazol-2-yl)benzaldehyde] are more than 100 µM and more than 100 µM.
For the compound `O=Cc1cc(-c2nc(-c3ccccc3)co2)cc(F)c1O` [Compound A90, 3-fluoro-2-hydroxy-5-(4-phenyloxazol-2-yl)benzaldehyde], the IC50 was determined as 6.5 µM on human TLR2 [1] (Table A) and 4.5 µM on human TLR2 [2] (Table A).
`O=Cc1cc(-c2csc(-c3ccc(Cl)cc3)n2)cc(F)c1O` [Compound A92, 5-(2-(4-chlorophenyl)thiazol-4-yl)-3-fluoro-2-hydroxybenzaldehyde]: the concentration for half-maximal inhibition (IC50) on human TLR2 [1] (Table A) is 3.5 µM; at human TLR2 [2] (Table A) it was 0.9 µM.
In the case of `O=Cc1cc(-c2csc(-c3ccc(N4C[C@H]5CCC[C@H]5C4)cc3)n2)cc(F)c1O` [Compound A97, 3-fluoro-5-(2-(4-((3aR,6aS)-hexahydrocyclopenta[c]pyrrol-2(1H)-yl)phenyl)thiazol-4-yl)-2-hydroxybenzaldehyde], the figures for the IC50 at human TLR2 [1] (Table A) and at human TLR2 [2] (Table A) were 0.9 µM and 0.3 µM, respectively.
Take `Cc1nc(-c2ccc(N3CCCC3)cc2)sc1-c1cc(F)c(O)c(C=O)c1` [Compound A98, 3-fluoro-2-hydroxy-5-(4-methyl-2-(4-(pyrrolidin-1-yl)phenyl)thiazol-5-yl)benzaldehyde]: the IC50 on human TLR2 [1] (Table A) stood at 1.4 µM; on human TLR2 [2] (Table A), 1 µM.
The like results for `O=Cc1cc(-c2cnc(-c3ccccc3)s2)ncc1O` [Compound A99, 5-hydroxy-2-(2-phenylthiazol-5-yl)isonicotinaldehyde] were, in that order, 3.3 µM and 2.2 µM.
The like results for `CC1(C)CCN(c2ccc(-c3nsc(-c4cc(F)c(O)c(C=O)c4)n3)cc2)C1` [Compound A100, 5-(3-(4-(3,3-dimethylpyrrolidin-1-yl)phenyl)-1,2,4-thiadiazol-5-yl)-3-fluoro-2-hydroxybenzaldehyde] were, in that order, 1.4 µM and 0.6 µM.
As for `O=Cc1cc(-c2cnc(-c3cccc(N4CCCC4)c3)s2)cc(F)c1O` [Compound A101, 3-fluoro-2-hydroxy-5-(2-(3-(pyrrolidin-1-yl)phenyl)thiazol-5-yl)benzaldehyde], the IC50 on human TLR2 [1] (Table A) turned out to be 3.2 µM; at human TLR2 [2] (Table A), 1 µM.
The like results for `O=Cc1cc(-c2cnc(-c3ccc(N4CCCC4)nc3)s2)cc(F)c1O` [Compound A102, 3-fluoro-2-hydroxy-5-(2-(6-(pyrrolidin-1-yl)pyridin-3-yl)thiazol-5-yl)benzaldehyde] were, in that order, 1.9 µM and 1 µM.
Turning to `Cc1nc(-c2cccc(N3CCCC3)c2)sc1-c1cc(F)c(O)c(C=O)c1` [Compound A103, 3-fluoro-2-hydroxy-5-(4-methyl-2-(3-(pyrrolidin-1-yl)phenyl)thiazol-5-yl)benzaldehyde], the IC50 was 3.9 µM at human TLR2 [1] (Table A) and 1.3 µM at human TLR2 [2] (Table A).
Turning to `Cc1nc(-c2ccc(N3CCCC3)nc2)sc1-c1cc(F)c(O)c(C=O)c1` [Compound A104, 3-fluoro-2-hydroxy-5-(4-methyl-2-(6-(pyrrolidin-1-yl)pyridin-3-yl)thiazol-5-yl)benzaldehyde], the half-maximal inhibitory concentration (IC50) was 6.8 µM on human TLR2 [1] (Table A) and 3.9 µM on human TLR2 [2] (Table A).
Regarding `CC1(C)CCN(c2ccc(-c3csc(-c4cc(F)c(O)c(C=O)c4)n3)cc2)C1` [Compound A105, 5-(4-(4-(3,3-dimethylpyrrolidin-1-yl)phenyl)thiazol-2-yl)-3-fluoro-2-hydroxybenzaldehyde], the figures for the 50% inhibitory concentration (IC50) on human TLR2 [1] (Table A) and on human TLR2 [2] (Table A) were 1.9 µM and 0.5 µM, respectively.
`O=Cc1cc(-c2cnc(-c3ccc(N4CCCC4)cc3)s2)ncc1O` [Compound A112, 5-hydroxy-2-(2-(4-(pyrrolidin-1-yl)phenyl)thiazol-5-yl)isonicotinaldehyde]: the half-inhibitory concentration (IC50) at human TLR2 [1] (Table A) was 0.3 µM; at human TLR2 [2] (Table A), 0.2 µM.
Take `O=Cc1cc(-c2cnc(-c3cnc(N4CCCC4)c(C(F)(F)F)c3)s2)cc(F)c1O` [Compound A114, 3-fluoro-2-hydroxy-5-(2-(6-(pyrrolidin-1-yl)-5-(trifluoromethyl)pyridin-3-yl)thiazol-5-yl)benzaldehyde]: the concentration for half-maximal inhibition (IC50) on human TLR2 [1] (Table A) was determined as 0.7 µM; on human TLR2 [2] (Table A), 0.4 µM.
The corresponding values for `O=Cc1cc(-c2cnc(-c3ccc(N4CC5(CCC5)C4)cc3)s2)cc(F)c1O` [Compound A116, 5-(2-(4-(2-azaspiro[3.3]heptan-2-yl)phenyl)thiazol-5-yl)-3-fluoro-2-hydroxybenzaldehyde] are 1.3 µM and 0.6 µM.
For `O=Cc1cc(-c2csc(-c3ccc(N4CCCC4)nc3)n2)cc(F)c1O` [Compound A123, 3-fluoro-2-hydroxy-5-(2-(6-(pyrrolidin-1-yl)pyridin-3-yl)thiazol-4-yl)benzaldehyde], the IC50 at human TLR2 [1] (Table A) is 1.7 µM; on human TLR2 [2] (Table A) it was 1.5 µM.
Turning to `O=Cc1cc(-c2csc(-c3cccc(N4CCCC4)c3)n2)cc(F)c1O` [Compound A124, 3-fluoro-2-hydroxy-5-(2-(3-(pyrrolidin-1-yl)phenyl)thiazol-4-yl)benzaldehyde], the half-maximal inhibitory concentration (IC50) on human TLR2 [1] (Table A) was 1.7 µM; on human TLR2 [2] (Table A) it was 1 µM.
The corresponding values for `O=Cc1cc(-c2nsc(-c3cccc(N4CCCC4)c3)n2)cc(F)c1O` [Compound A125, 3-fluoro-2-hydroxy-5-(5-(3-(pyrrolidin-1-yl)phenyl)-1,2,4-thiadiazol-3-yl)benzaldehyde] are 3.3 µM and 2 µM.
The corresponding values for `O=Cc1cc(-c2csc(-c3ccc(N4CCCCC4)nc3)n2)cc(F)c1O` [Compound A126, 3-fluoro-2-hydroxy-5-(2-(6-(piperidin-1-yl)pyridin-3-yl)thiazol-4-yl)benzaldehyde] are 1.1 µM and 0.6 µM.
As for `O=Cc1cc(-c2cnc(-c3ccc(N4CCCCC4)nc3)s2)cc(F)c1O` [Compound A127, 3-fluoro-2-hydroxy-5-(2-(6-(piperidin-1-yl)pyridin-3-yl)thiazol-5-yl)benzaldehyde], the half-inhibitory concentration (IC50) turned out to be 1.2 µM on human TLR2 [1] (Table A) and 0.7 µM at human TLR2 [2] (Table A).
As to `O=Cc1cc(C#Cc2ccc(N3CCCCC3)cc2)cc(F)c1O` [Compound B2, 3-fluoro-2-hydroxy-5-((4-(piperidin-1-yl)phenyl)ethynyl)benzaldehyde], the IC50 was determined as 0.5 µM at human TLR2 [1] (Table B) and 0.3 µM on human TLR2 [2] (Table B).
In the case of `O=Cc1c(O)cc(C#Cc2ccc(N3CCCCC3)cc2)cc1F` [Compound B5, 2-fluoro-6-hydroxy-4-((4-(piperidin-1-yl)phenyl)ethynyl)benzaldehyde], the IC50 on human TLR2 [1] (Table B) was found to be 1.9 µM; at human TLR2 [2] (Table B), 1.1 µM.
The like results for `O=Cc1c(O)cc(C#Cc2ccc(N3CCOCC3)cc2)cc1F` [Compound B6, 2-fluoro-6-hydroxy-4-((4-morpholinophenyl)ethynyl)benzaldehyde] were, in that order, 3.8 µM and 1.8 µM.

The term IC50 denotes the concentration that gives 50% inhibition. Higher therefore signals lower potency.
